# Measurements published in patent publication US20250312352A1, “GLP-1R MODULATING COMPOUNDS” (Gilead Sciences, Inc., priority 2021, published 2025).
# Target: T1, GLP-1R (Homo sapiens, UniProt P43220)
# T1 construct: host or cells: CHO cells
# Test: GLP-1R activation cAMP assay (Assay 1 or Assay 2)
# Format: cell-based
# Details: cAMP increase in CHO cells stably expressing GLP-1R; compounds run on one of the two cAMP assays
# Summary of the method: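 EC50 values come from a sigmoidal fit of HTRF-detected cAMP rise versus log agonist concentration. GLP-1R-expressing CHO cells, equilibrated 1 h at 37 °C in HBSS with HEPES and BSA, received a 10-point compound dose series for 30 min before detection.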
# T1 sequence (P43220 24-463): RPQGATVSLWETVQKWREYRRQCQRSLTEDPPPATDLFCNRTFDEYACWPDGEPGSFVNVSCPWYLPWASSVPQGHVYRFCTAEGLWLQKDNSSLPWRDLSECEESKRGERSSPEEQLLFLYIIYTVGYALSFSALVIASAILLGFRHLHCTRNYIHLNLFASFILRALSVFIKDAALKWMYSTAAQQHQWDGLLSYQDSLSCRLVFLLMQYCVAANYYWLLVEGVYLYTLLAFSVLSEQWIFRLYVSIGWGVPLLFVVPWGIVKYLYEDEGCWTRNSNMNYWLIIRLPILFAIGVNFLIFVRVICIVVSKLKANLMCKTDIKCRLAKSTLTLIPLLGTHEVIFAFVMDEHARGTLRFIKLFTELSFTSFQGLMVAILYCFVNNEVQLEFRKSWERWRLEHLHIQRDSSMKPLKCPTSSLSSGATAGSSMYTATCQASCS
row,SMILES,EC50 [nM]
1,"N#Cc1cnc(COc2cccc(-c3cc(F)c(Cc4nc5c(F)cc(C(=O)O)cc5n4C[C@@H]4CCO4)cc3F)n2)s1 [Example 372, 2-[[4-[6-[(5-cyanothiazol-2-yl)methoxy]-2-pyridyl]-2,5-difluoro-phenyl]methyl]-7-fluoro-3-[[(2S)-oxetan-2-yl]methyl]benzimidazole-5-carboxylic acid]",0.024
2,"Cn1cc(-c2cnc(COc3cccc(-c4cc(F)c(Cc5nc6ccc(C(=O)O)cc6n5[C@H]5COCC5(C)C)cc4F)n3)s2)cn1 [Example 97, (R)-2-(2,5-difluoro-4-(6-((5-(1-methyl-1H-pyrazol-4-yl)thiazol-2-yl)methoxy)pyridin-2-yl)benzyl)-1-(4,4-dimethyltetrahydrofuran-3-yl)-1H-benzo[d]imidazole-6-carboxylic acid]",0.11
3,"O=C(O)c1ccc2nc(Cc3cc(F)c(-c4cccc(OCc5ncc(C#Cc6cnn(C7CC7)c6)s5)n4)cc3F)n(C[C@@H]3CCO3)c2c1 [Example 118, (S)-2-(4-(6-((5-((1-cyclopropyl-1H-pyrazol-4-yl)ethynyl)thiazol-2-yl)methoxy)pyridin-2-yl)-2,5-difluorobenzyl)-1-(oxetan-2-ylmethyl)-1H-benzo[d]imidazole-6-carboxylic acid]",0.44
4,"COc1ncc(C#Cc2ccc(COc3cccc(-c4cc(F)c(Cc5nc6ccc(C(=O)O)cc6n5C[C@@H]5CCO5)cc4F)n3)c(F)n2)s1 [Example 277, (S)-2-(2,5-difluoro-4-(6-((2-fluoro-6-((2-methoxythiazol-5-yl)ethynyl)pyridin-3-yl)methoxy)pyridin-2-yl)benzyl)-1-(oxetan-2-ylmethyl)-1H-benzo[d]imidazole-6-carboxylic acid]",0.312
5,"Cn1cc(C#Cc2ccc(COc3cccc(-c4cc(F)c(Cc5nc6c(F)cc(C(=O)O)cc6n5C[C@@H]5CCO5)cc4F)n3)cn2)cn1 [Example 391, (S)-2-(2,5-difluoro-4-(6-((6-((1-methyl-1H-pyrazol-4-yl)ethynyl)pyridin-3-yl)methoxy)pyridin-2-yl)benzyl)-4-fluoro-1-(oxetan-2-ylmethyl)-1H-benzo[d]imidazole-6-carboxylic acid]",0.305
6,"Cn1cc(C#Cc2cnc(COc3nc(-c4cc(F)c(Cc5nc6c(F)cc(C(=O)O)cc6n5C[C@@H]5CCO5)cc4F)ccc3F)c(F)c2)cn1 [Example 296, (S)-2-(2,5-difluoro-4-(5-fluoro-6-((3-fluoro-5-((1-methyl-1H-pyrazol-4-yl)ethynyl)pyridin-2-yl)methoxy)pyridin-2-yl)benzyl)-4-fluoro-1-(oxetan-2-ylmethyl)-1H-benzo[d]imidazole-6-carboxylic acid]",0.036
7,"O=C(O)c1ccc2nc(Cc3cc(F)c(-c4cccc(OCc5ncc(C#Cc6cnsc6)cc5F)n4)cc3F)n(C[C@@H]3CCO3)c2c1 [Example 285, (S)-2-(2,5-difluoro-4-(6-((3-fluoro-5-(isothiazol-4-ylethynyl)pyridin-2-yl)methoxy)pyridin-2-yl)benzyl)-1-(oxetan-2-ylmethyl)-1H-benzo[d]imidazole-6-carboxylic acid]",0.126
8,"NC(=O)c1cccc(COc2cccc(-c3cc(F)c(Cc4nc5ccc(C(=O)O)cc5n4C[C@@H]4CCO4)cc3F)n2)n1 [Example 374, (S)-2-(4-(6-((6-carbamoylpyridin-2-yl)methoxy)pyridin-2-yl)-2,5-difluorobenzyl)-1-(oxetan-2-ylmethyl)-1H-benzo[d]imidazole-6-carboxylic acid]",0.478
9,"O=C(O)c1ccc2nc(Cc3cc(F)c(-c4cccc(OCc5ncc(C#CC6CC(F)(F)C6)s5)n4)cc3F)n(C[C@@H]3CCO3)c2c1 [Example 336, (S)-2-(4-(6-((5-((3,3-difluorocyclobutyl)ethynyl)thiazol-2-yl)methoxy)pyridin-2-yl)-2,5-difluorobenzyl)-1-(oxetan-2-ylmethyl)-1H-benzo[d]imidazole-6-carboxylic acid]",0.261
10,"Cc1nnc(COc2cccc(-c3cc(F)c(Cc4nc5ccc(C(=O)O)cc5n4[C@H]4COCC4(C)C)c(F)c3F)n2)s1 (single isomer, unassigned) [Example 281B]",20.8
11,"O=C(O)c1ccc2nc(Cc3cc(F)c(-c4cccc(OCc5cc6n(n5)CCC6)n4)cc3F)n(C[C@@H]3CCO3)c2c1 [Example 65, (S)-2-(4-(6-((5,6-dihydro-4H-pyrrolo[1,2-b]pyrazol-2-yl)methoxy)pyridin-2-yl)-2,5-difluorobenzyl)-1-(oxetan-2-ylmethyl)-1H-benzo[d]imidazole-6-carboxylic acid]",0.19

# The remaining lines, values ahead:
row,EC50 [nM],SMILES
1,0.2,"O=C(O)c1ccc2nc(Cc3cc(F)c(-c4cccc(OCc5nc6ccccc6s5)n4)cc3F)n(C[C@@H]3CCO3)c2c1 [Example 34, (S)-2-(4-(6-(benzo[d]thiazol-2-ylmethoxy)pyridin-2-yl)-2,5-difluorobenzyl)-1-(oxetan-2-ylmethyl)-1H-benzo[d]imidazole-6-carboxylic acid]"
2,0.301,"O=C(O)c1cc(F)c2nc(Cc3cc(F)c(-c4cccc(OCc5ncc(C#CC6(C(F)F)CC6)cc5Cl)n4)cc3F)n(C[C@@H]3CCO3)c2c1 [Example 381, (S)-2-(4-(6-((3-chloro-5-((1-(difluoromethyl)cyclopropyl)ethynyl)pyridin-2-yl)methoxy)pyridin-2-yl)-2,5-difluorobenzyl)-4-fluoro-1-(oxetan-2-ylmethyl)-1H-benzo[d]imidazole-6-carboxylic acid]"
3,0.024,"COc1nnc(COc2nc(-c3ccc(Cc4nc5c(F)cc(C(=O)O)cc5n4[C@@H]4COCC4(C)C)c(F)c3)ccc2F)s1 [Example 429, (S)-1-(4,4-dimethyltetrahydrofuran-3-yl)-4-fluoro-2-(2-fluoro-4-(5-fluoro-6-((5-methoxy-1,3,4-thiadiazol-2-yl)methoxy)pyridin-2-yl)benzyl)-1H-benzo[d]imidazole-6-carboxylic acid]"
4,0.186,"CNC(=O)c1cc(Cl)c(COc2cc(-c3cc(F)c(Cc4nc5c(F)cc(C(=O)O)cc5n4C[C@@H]4CCO4)cc3F)ccc2F)cn1 [Example 388, (S)-2-((3′-((4-chloro-6-(methylcarbamoyl)pyridin-3-yl)methoxy)-2,4′,5-trifluoro-[1,1′-biphenyl]-4-yl)methyl)-4-fluoro-1-(oxetan-2-ylmethyl)-1H-benzo[d]imidazole-6-carboxylic acid]"
5,0.252,"O=C(O)c1ccc2nc(Cc3cc(F)c(-c4cccc(OCc5ncc(C#Cc6cncs6)cc5F)n4)cc3F)n(C[C@@H]3CCO3)c2c1 [Example 303, (S)-2-(2,5-difluoro-4-(6-((3-fluoro-5-(thiazol-5-ylethynyl)pyridin-2-yl)methoxy)pyridin-2-yl)benzyl)-1-(oxetan-2-ylmethyl)-1H-benzo[d]imidazole-6-carboxylic acid]"
6,1070,"COCCn1c(Cc2cc(F)c(-c3cccc(OCc4ccc(C#CC(C)(C)S(C)(=O)=O)nc4)n3)cc2F)nc2ccc(C(=O)O)cc21 [Example 221, 2-[[2,5-difluoro-4-[6-[[6-(3-methyl-3-methylsulfonyl-but-1-ynyl)-3-pyridyl]methoxy]-2-pyridyl]phenyl]methyl]-3-(2-methoxyethyl)benzimidazole-5-carboxylic acid]"
7,0.6,"N#Cc1ccc(-c2cnc(COc3cccc(-c4cc(F)c(Cc5nc6ccc(C(=O)O)cc6n5C[C@@H]5CCO5)cc4F)n3)s2)cc1 [Example 383, (S)-2-(4-(6-((5-(4-cyanophenyl)thiazol-2-yl)methoxy)pyridin-2-yl)-2,5-difluorobenzyl)-1-(oxetan-2-ylmethyl)-1H-benzo[d]imidazole-6-carboxylic acid]"
8,0.1,"Cn1cc(C#Cc2ccc(COc3cccc(-c4cc(F)c(Cc5nc6c(F)cc(C(=O)O)cc6n5C[C@@H]5CCO5)cc4F)n3)c(F)c2)cn1 [Example 151, (S)-2-(2,5-difluoro-4-(6-((2-fluoro-4-((1-methyl-1H-pyrazol-4-yl)ethynyl)benzyl)oxy)pyridin-2-yl)benzyl)-4-fluoro-1-(oxetan-2-ylmethyl)-1H-benzo[d]imidazole-6-carboxylic acid]"
9,0.118,"O=C(O)c1ccc2nc(Cc3c(F)cc(-c4cccc(OCc5ncc(C(F)(F)F)s5)n4)c(F)c3F)n(C[C@@H]3CCO3)c2c1 [Example 448, (S)-1-(oxetan-2-ylmethyl)-2-(2,3,6-trifluoro-4-(6-((5-(trifluoromethyl)thiazol-2-yl)methoxy)pyridin-2-yl)benzyl)-1H-benzo[d]imidazole-6-carboxylic acid]"
10,0.17,"O=C(O)c1ccc2nc(Cc3cc(F)c(-c4cccc(OCc5ncc(Br)s5)n4)cc3F)n(C[C@@H]3CCO3)c2c1 [Example 22, (S)-2-(4-(6-((5-bromothiazol-2-yl)methoxy)pyridin-2-yl)-2,5-difluorobenzyl)-1-(oxetan-2-ylmethyl)-1H-benzo[d]imidazole-6-carboxylic acid]"
11,0.226,"CC1(C#Cc2cnc(COc3cccc(-c4cc(F)c(Cc5nc6ccc(C(=O)O)cc6n5C[C@@H]5CCO5)cc4F)n3)s2)CC1 [Example 329, (S)-2-(2,5-difluoro-4-(6-((5-((1-methylcyclopropyl)ethynyl)thiazol-2-yl)methoxy)pyridin-2-yl)benzyl)-1-(oxetan-2-ylmethyl)-1H-benzo[d]imidazole-6-carboxylic acid]"
12,3.38,"NC(=O)c1csc(COc2cccc(-c3cc(F)c(Cc4nc5ccc(C(=O)O)cc5n4C[C@@H]4CCO4)cc3F)n2)c1 [Example 131, (S)-2-(4-(6-((4-carbamoylthiophen-2-yl)methoxy)pyridin-2-yl)-2,5-difluorobenzyl)-1-(oxetan-2-ylmethyl)-1H-benzo[d]imidazole-6-carboxylic acid]"
13,0.89,"COCCn1c(Cc2cc(F)c(-c3cccc(OCc4ccc(C#CC5CN(C(C)=O)C5)cc4F)n3)cc2F)nc2ccc(C(=O)O)cc21 [Example 251, 2-[[4-[6-[[4-[2-(1-acetylazetidin-3-yl)ethynyl]-2-fluoro-phenyl]methoxy]-2-pyridyl]-2,5-difluoro-phenyl]methyl]-3-(2-methoxyethyl)benzimidazole-5-carboxylic acid]"
